Patent US9090593B2, “Bicyclic compounds as Pim inhibitors” (AMGEN INC., priority 2010, dated 2015)

Legend:
[1] = molecular target: T1, full length recombinant Pim-2 protein (Homo sapiens, UniProt Q9P1W9); assay: Pim-2 enzyme assay (HTRF, phosphorylation of biotinylated-BAD (S112) peptide); type: biochemical; conditions: read-out: Pim2_IC50
T1 construct: by full length recombinant Pim-1, Pim-2, or Pim-3 protein; hexahistidine tag followed by a thrombin cleavage site (N); made in house; host or cells: Sf9 (baculovirus) or E. coli (pET28)
T1 sequence (Q9P1W9 whole entry): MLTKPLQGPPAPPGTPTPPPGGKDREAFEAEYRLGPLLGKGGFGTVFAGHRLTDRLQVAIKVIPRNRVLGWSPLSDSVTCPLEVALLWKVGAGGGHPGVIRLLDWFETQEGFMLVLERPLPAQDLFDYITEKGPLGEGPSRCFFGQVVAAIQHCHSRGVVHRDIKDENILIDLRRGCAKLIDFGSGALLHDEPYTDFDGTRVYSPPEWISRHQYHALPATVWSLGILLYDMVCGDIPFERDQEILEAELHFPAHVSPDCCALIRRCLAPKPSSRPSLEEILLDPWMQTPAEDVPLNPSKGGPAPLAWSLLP
In short: (§1)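 Kinase: full-length human Pim-1/Pim-2, His6-thrombin tagged. Substrate biotin-BAD (S112) peptide. Buffer 60 mM Hepes pH 7.0, 0.05% BSA, 2 mM DTT. Stop 3 mM EDTA. Detection HTRF (Eu anti-pBAD/SA-APC). IC50 by 4-parameter logistic on POC.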

[2] = molecular target: T2, full length recombinant Pim-1 protein (Homo sapiens, UniProt P11309); assay: Pim-1 enzyme assay (HTRF, phosphorylation of biotinylated-BAD (S112) peptide); type: biochemical; conditions: read-out: Pim_1_IC50
T2 construct: by full length recombinant Pim-1, Pim-2, or Pim-3 protein; hexahistidine tag followed by a thrombin cleavage site (N); made in house; host or cells: Sf9 (baculovirus) or E. coli (pET28)
T2 sequence (P11309 whole entry): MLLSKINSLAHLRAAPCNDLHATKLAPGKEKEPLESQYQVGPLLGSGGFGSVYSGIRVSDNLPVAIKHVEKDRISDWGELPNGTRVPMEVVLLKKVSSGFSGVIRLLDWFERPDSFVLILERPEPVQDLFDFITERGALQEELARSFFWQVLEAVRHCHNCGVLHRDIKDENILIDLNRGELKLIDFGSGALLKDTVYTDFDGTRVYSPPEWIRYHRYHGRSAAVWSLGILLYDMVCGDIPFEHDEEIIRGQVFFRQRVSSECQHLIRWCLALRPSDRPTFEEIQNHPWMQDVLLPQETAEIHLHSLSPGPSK
In short: as §1

KMS-Cell = assay: KMS cell IC50 (Table 4); type: cell-based; conditions: KMS cells

SMILES | IC50 [1] [nM] | IC50 [2] [nM] | IC50 (KMS-Cell) [nM]
CC(c1ccc2[nH]nc(-c3cncc(O[C@H]4CNCCC45CC5)n3)c2c1)C(F)(F)F (single isomer, unassigned) [Example 260] | 5 | 9 | 2190
Fc1cccc(F)c1-c1ccc2[nH]nc(-c3cncc(OC4CCNCC45CC5)n3)c2c1 (single isomer, unassigned) [Example 430] | 6 | 1 | 7850
Fc1cccc(F)c1-c1ccc2[nH]cc(-c3cncc(OC4CNCCC45CC5)n3)c2c1 (single isomer, unassigned) [Example 438] | 2 | 1 | 11900
O=C(NC1CC1)c1cccc(-c2ccc3[nH]nc(-c4cncc(O[C@H]5CNCCC56CC6)n4)c3c2)c1 [Example 247, 3-(3-(6-((4R)-6-azaspiro[25]oct-4-yloxy)-2-pyrazinyl)-1H-indazol-5-yl)-N-cyclopropylbenzamide] | 4 | 4 | 4310
CC(C)c1ccc2[nH]nc(-c3cncc(O[C@H]4CNCCC45CC5)n3)c2c1 [Example 253, 3-(6-((4R)-6-azaspiro[2.5]oct-4-yloxy)-2-pyrazinyl)-5-(1-methylethyl)-1H-indazole] | 9 | 9 | 5580
C=C(C)c1ccc2[nH]nc(-c3cncc(O[C@H]4CNCCC45CC5)n3)c2c1 [Example 256, 3-(6-((4R)-6-azaspiro[2.5]oct-4-yloxy)-2-pyrazinyl)-5-(1-methylethenyl)-1H-indazole] | 11 | 6 | 3280
C=C(c1ccc2[nH]nc(-c3cncc(O[C@H]4CNCCC45CC5)n3)c2c1)C(F)(F)F [Example 257, 3-(6-((4R)-6-azaspiro[2.5]oct-4-yloxy)-2-pyrazinyl)-5-(1-(trifluoromethyl)ethenyl)-1H-indazole] | 2 | 4 | 1170
CC(c1ccc2[nH]nc(-c3cncc(O[C@H]4CNCCC45CC5)n3)c2c1)C(F)(F)F (stereo partly drawn) [Example 258, 3-(6-((4R)-6-azaspiro[25]oct-4-yloxy)-2-pyrazinyl)-5-(2,2,2-trifluoro-1-methylethyl)-1H-indazole] | 6 | 9 | 3190
FC(F)(F)C1(c2ccc3[nH]nc(-c4cncc(O[C@H]5CNCCC56CC6)n4)c3c2)CC1 [Example 261, 3-(6-((4R)-6-azaspiro[2.5]oct-4-yloxy)-2-pyrazinyl)-5-(1-(trifluoromethyl)cyclopropyl)-1H-indazole] | 4 | 6 | 1490
CC1(c2ccc3[nH]nc(-c4cncc(O[C@H]5CNCCC56CC6)n4)c3c2)CC1 [Example 262, 3-(6-((4R)-6-azaspiro[2.5]oct-4-yloxy)-2-pyrazinyl)-5-(1-methylcyclopropyl)-1H-indazole] | 5 | 4 | 2220

Next, values leading:

IC50 [1] [nM] | IC50 [2] [nM] | IC50 (KMS-Cell) [nM] | SMILES
9 | 6 | 10000 | CC(C)C1CCNCC1Oc1cncc(-c2n[nH]c3ccc(-c4c(F)cccc4F)cc23)n1 (single isomer, unassigned) [Example 395]
37 | 13 | > 15800 | Fc1cccc(F)c1-c1ccc2[nH]nc(-c3cncc(OC4C=CCNC4)n3)c2c1 (single isomer, unassigned) [Example 427]
4 | 2 | 3050 | CC1CNCC(Oc2cncc(-c3n[nH]c4ccc(-c5c(F)cccc5F)cc34)n2)C1 (single isomer, unassigned) [Example 469]
21 | 20 | 2090 | CC1CNCC(Oc2nc(O)cc(-c3n[nH]c4ccc(-c5c(F)cccc5F)cc34)n2)C1 (single isomer, unassigned) [Example 568]
1 | 1 | 282 | CC1CNCC(Oc2nc(O)cc(-c3n[nH]c4ccc(-c5c(F)cccc5F)cc34)n2)C1 (single isomer, unassigned) [Example 569]
